Experimental findings from PubChem BioAssay (NCI) are described below.

Each structure is given as a SMILES string. Several values for one entry are separate records, joined by “and”; a condition that tells them apart may be missing. Identical values can stand only once.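 1) Cells in 96-well plates. 2) Compound, 48 h, 5 concentrations. 3) Linear interpolation between surrounding doses. 4) Unreached endpoint = highest concentration. GI50 marks 50% less growth. Definition used: TGI = concentration required for complete inhibition of growth.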

Common to all, as to experiment: NCI-60 cell line screen, 48 h
Assay [1] has as its system SK-MEL-2 melanoma.
Assay [2] concerns ACHN renal.
The subject of assay [3] is SNB-75 CNS.
Assay [4] relates to SK-OV-3 ovarian.
The test system of assay [5] is M14 melanoma.
The subject of assay [6] is IGROV1 ovarian.
Assay [7] deals with DU-145 prostate.
In assay [8] the test system is KM12 colon.
Assay [9] has as its system OVCAR-8 ovarian.
Assay [10] deals with MALME-3M melanoma.

For the molecule `Cn1cc(C2=C(c3ccccc3C(F)(F)F)C(=O)NC2=O)c2ccccc21`, the GI50 in assay [1] was 8.11 µM; in [2] it was 8.06 µM; in assay [3] it was more than 14 µM; in [4] it was 10.2 µM; in assay [5] it was 19.8 µM; in assay [6], 13.2 µM. Also, the GI50 was 12.5 µM in assay [7], 6.97 µM in [8], 10.4 µM in assay [9] and more than 18.5 µM in assay [10]. Further, the TGI is more than 24 µM in assay [1]; more than 25 µM in [2]; more than 25 µM in [3]; more than 25 µM in assay [4]; more than 25 µM in assay [5]; more than 25 µM in assay [6]. Also, the TGI in assay [7], in assay [8], in [9] and in [10] was more than 25 µM throughout.
For the molecule `COc1ccc2nc3cccc([N+](=O)[O-])c3c(NCCNCCN(C)C)c2c1`, the GI50 is 0.0308 µM in assay [1]; 0.0414 µM in [2]; 0.158 µM in [3]; 0.279 µM in assay [4]; 0.0734 µM in [5]; 0.0195 µM in assay [6]. For the same molecule, the GI50 was 0.0374 µM in assay [7], 0.142 µM in assay [8], 0.044 µM in assay [9] and 0.205 µM in [10]. The TGI in [1] came out at 0.107 µM; in [2] it was 0.439 µM; in assay [3], 0.386 µM; in assay [4], 1.06 µM; in [5], 0.208 µM; in [6], 0.136 µM. Moreover, the TGI in [7] was found to be 0.909 µM; in [8] it was 0.414 µM; in assay [9], 0.277 µM; in assay [10] it was 0.538 µM.
Take `CNCCCNc1c2ccccc2nc2cccc([N+](=O)[O-])c12`: the TGI was 0.00798 µM in [1]; 0.0152 µM in assay [2]; 0.0142 µM in assay [3]; 0.0427 µM in [4]; 0.00846 µM in assay [5]; 0.0201 µM and 0.0279 µM in assay [6]. The TGI in assay [7] was 0.0192 µM; in assay [8] it was 0.0677 µM; in [9] it was 0.0205 µM; in [10] it was 0.00997 µM.
Regarding `Cc1c(C)c2c(c(C)c1OCC(=O)O)CC[C@@](C)(CCC[C@@H](C)CCC[C@@H](C)CCCC(C)C)O2`, the GI50 was 64.4 µM in [1]; 53.1 µM in assay [2]; 69.9 µM in assay [3]; 76.8 µM in assay [4]; 41.1 µM in assay [5]; 91.7 µM in assay [6]. For the same molecule, the GI50 in [7] was 75.7 µM; in [8] it was 63.3 µM; in assay [9] it was 59.4 µM; in assay [10] it was 66.5 µM. For the same molecule, the TGI in assay [1] stood at 142 µM; in assay [2] it was 112 µM; in assay [3], 141 µM; in assay [4], 148 µM; in [5], 114 µM; in [6] it was 187 µM. Moreover, the TGI in [7] was 147 µM; in assay [8] it was 173 µM; in [9] it was 152 µM; in assay [10] it was 130 µM.
On to `CCN(CC)c1ccc(/C=N/NC(=O)CSc2nc3ccccc3c(=O)n2Cc2ccc(S(N)(=O)=O)cc2)c(O)c1`, for which the GI50 is 2.41 µM in assay [1]; 1.58 µM in [2]; 2.86 µM in assay [3]; 1.32 µM in assay [4]; 0.452 µM in [5]; 0.785 µM in [6]. Also, the GI50 in assay [7] was 0.944 µM; in assay [8], 0.569 µM; in assay [9] it was 0.932 µM; in [10], 1.09 µM. The TGI in assay [1] was more than 100 µM; in [2], more than 100 µM; in assay [3] it was more than 100 µM; in assay [4], more than 100 µM; in assay [5] it was 10.9 µM; in [6], more than 100 µM. Also, the TGI in [7], in assay [8], in [9] and in [10] was more than 100 µM each time.
Regarding `S=C(CSc1ccccc1)Nc1cccc2ccccc12`, the TGI in assay [1] was 74.5 µM; in assay [2] it was more than 100 µM; in assay [3], more than 100 µM; in assay [4] it was more than 100 µM; in assay [5], more than 100 µM; in assay [6] it was more than 100 µM. Besides, the TGI in assay [7], in assay [8], in assay [9] and in [10] was more than 100 µM throughout.
Turning to `CC[C@@H](O)C[C@H]1CCC[C@@]2(C[C@@H]3OC(=O)/C=C/[C@@](C)(O)[C@@H](O)[C@H](C)[C@@H](O)[C@H](OC4CCC(N(C)C)C(C)O4)[C@@H](O)[C@](C)(O)CCCCC/C=C/[C@@H]4CC(C)(C)O[C@@]4(O)C[C@H](O2)[C@H]3C)O1` (stereo partly drawn), the TGI in [1] was 22.7 µM; in assay [2], 17.6 µM; in assay [3], 21.5 µM; in assay [4] it was 29.1 µM; in assay [5], 7.48 µM; in assay [6], 21.8 µM. The TGI in [7] was determined as 24.1 µM; in assay [8], 24.4 µM; in [9], 20.3 µM; in [10], 15.5 µM.
For the molecule `OC(COc1ccccc1)CN1CCCCC1` (stereo not drawn), the TGI in assay [1], in [2], in [3], in assay [4], in assay [5] and in [6] was more than 100 µM each time. Also, the TGI in assay [7], in assay [8], in [9] and in [10] was more than 100 µM in each case.
Turning to `NCCOc1ncccc1/C=C1\c2ccccc2-c2ccc([N+](=O)[O-])cc21`, the GI50 was 0.314 µM in assay [1]; 0.0235 µM in assay [2]; 0.0488 µM in assay [3]; 0.0489 µM in assay [4]; 0.0439 µM in [5]; 0.131 µM in [6]. Further, the GI50 in [7] was 0.0193 µM; in assay [8], 0.11 µM; in [9] it was 0.0686 µM; in assay [10], 0.055 µM. In addition, the TGI came to 0.754 µM in [1]; 0.119 µM in assay [2]; 0.437 µM in [3]; 0.309 µM in [4]; 0.322 µM in [5]; 0.728 µM in [6]. The TGI stood at 0.224 µM in [7], 0.546 µM in [8], 0.705 µM in [9] and 0.275 µM in [10].
`Cc1noc(C)c1-c1cnc2c(-c3ccc(C(=O)O)cc3)cn([C@@H](C)c3ccccn3)c2c1`: the GI50 was 7.02 µM in assay [1]; 1.38 µM in assay [2]; 0.0376 µM in assay [3]; 0.635 µM in assay [4]; 0.629 µM in assay [5]; 0.607 µM in assay [6]. For the same molecule, the GI50 in [7] was 22.6 µM; in [8], 2.73 µM; in assay [9] it was 2.89 µM; in assay [10] it was 0.635 µM. The TGI in [1] is more than 100 µM; in assay [2], more than 100 µM; in [3], 2.47 µM; in assay [4], 32.5 µM; in assay [5], more than 100 µM; in assay [6], more than 100 µM. The TGI in assay [7], in [8], in assay [9] and in assay [10] was more than 100 µM in each case.
With `COc1ccc2c(c1)O/C(=C\c1cccc(OCC(=O)Nc3nc(C)c(C)s3)c1)C2=O`, the GI50 is 1.68 µM in assay [1]; 2.28 µM in assay [2]; 0.862 µM in assay [3]; 25.2 µM in assay [4]; 0.175 µM in [5]; 0.152 µM in assay [6]. The GI50 in [7] is 0.189 µM; in assay [8] it was 1.02 µM; in assay [9], 4.7 µM; in [10], 1.8 µM. Moreover, the TGI in [1] was 3.22 µM; in [2] it was 7 µM; in assay [3], 6.51 µM; in [4], more than 75.3 µM; in assay [5], 0.368 µM; in assay [6], 0.316 µM. In addition, the TGI in assay [7] is 0.404 µM; in assay [9] it was more than 100 µM; in [10] it was 3.92 µM.
With `CC(=O)O[C@H](C[C@H](C(C)C)N(C)C(=O)[C@@H](NC(=O)[C@H]1CCCCN1C)C(C)C)c1cccc(C(=O)N[C@@H](Cc2ccccc2)C[C@H](C)C(=O)O)n1`, the GI50 in [1] was 0.0159 µM; in [2], 0.0955 µM; in assay [3] it was 0.00695 µM; in [4], 0.0312 µM; in assay [5], 0.0237 µM; in assay [6] it was 0.0287 µM. Further, the GI50 was 0.0263 µM in assay [7], 0.0262 µM in [8], 0.0475 µM in assay [9] and 0.0164 µM in assay [10]. Moreover, the TGI in assay [1] was more than 25 µM; in assay [2], more than 25 µM; in [3], more than 25 µM; in [4], more than 25 µM; in assay [6], more than 25 µM; in assay [7] it was 1.49 µM. Further, the TGI in assay [8], in assay [9] and in assay [10] was more than 25 µM in each case.
Take `COc1cc(-c2cc3ncccc3c3[nH]c(=O)c4cccnc4c23)cc(OC)c1OC`: the GI50 was 0.833 µM in assay [1]; 0.885 µM in assay [2]; 0.271 µM in [3]; 1.35 µM in assay [4]; 0.425 µM in [5]; 3.61 µM in assay [6]. In addition, the GI50 in assay [7] is 0.907 µM; in assay [8], 0.651 µM; in assay [9], 2.51 µM; in assay [10] it was 16.2 µM. For the same molecule, the TGI in assay [1] is more than 100 µM; in assay [2], more than 100 µM; in assay [3] it was 62.9 µM; in assay [4] it was more than 100 µM; in [5], more than 100 µM; in assay [6] it was more than 100 µM. In addition, the TGI in [7], in [8], in [9] and in [10] was more than 100 µM each time.
As for `C/C(=N\NC(N)=S)c1sc(-n2nc(-c3ccccc3)cc2-c2ccccc2)nc1C`, the TGI in [1], in assay [2], in assay [3], in assay [4], in [5] and in assay [6] was more than 100 µM in each case. Moreover, the TGI in assay [7], in [8], in [9] and in assay [10] was more than 100 µM each time.
With `Oc1c(O)c(Cl)c(Cl)c(Cl)c1Cl`, the GI50 in assay [1] was 4.1 µM; in [2] it was 5.15 µM; in assay [3], 2.52 µM; in assay [4], 16 µM; in [5], 3.51 µM; in assay [6], 3.06 µM. Further, the GI50 in [7] was 7.1 µM; in assay [8], 3.96 µM; in assay [9], 2.89 µM; in assay [10] it was 2.83 µM. The TGI in assay [1] was determined as 15.2 µM; in [2] it was 35.5 µM; in [3], 21 µM; in assay [4], 44.5 µM; in [5], 15.4 µM; in assay [6], 10.4 µM. For the same molecule, the TGI in assay [7] was more than 100 µM; in [8], 19.7 µM; in assay [9], 13.9 µM; in [10] it was 13.4 µM.
On to `CCOC(=O)C#Cc1c(C(=O)OCC)nnn1[C@@H]1O[C@H](CO)[C@H]2OC3(CCCCC3)O[C@H]21`, for which the GI50 in assay [1] was 17.7 µM; in assay [2] it was 1.8 µM; in [3], 11.5 µM; in assay [4] it was 17.7 µM; in assay [5], 2.67 µM; in [6] it was 15.5 µM. Besides, the GI50 in [7] was 3.89 µM; in assay [8], 12.2 µM; in [9] it was 3.81 µM; in assay [10] it was 1.87 µM. For the same molecule, the TGI was 34 µM in assay [1]; 3.41 µM in assay [2]; 24.2 µM in assay [3]; 33.3 µM in assay [4]; 7.6 µM in assay [5]; 36.7 µM in [6]. The TGI in [7] was determined as 13.6 µM; in [8] it was 27 µM; in assay [9], 13.2 µM; in [10] it was 3.76 µM.
